Reference: patent US7230033B2, “Pest control compositions and methods for their use” (United States of America as represented by the Secretary of …, priority 2000, dated 2007)
Values after ≈ are worked out from the molar mass of the structure shown. Where two headings read alike, the source gives them in different places. Marks after values point to notes of the source that are not given here.

Key:
[1] = system: I. scapularis nymphs; experiment: Tick bioassay, treated 2-dram vials, probit analysis; format: in vivo, Ixodes scapularis; settings: for LC90 / Slope: 24 h exposure; for LC90: NE = not effective at concentrations tested; for Slope: probit
Text: A control treated with acetone only was run with each series.
For each time point, if ticks and fleas were incapable of movement, maintaining normal posture, leg coordination, ability to right themselves, or any signs of life, they were considered moribund or dead.

[2] = system: X. cheopis adults; experiment: Flea bioassay, treated 2-dram vials, probit analysis; format: in vivo, Xenopsylla cheopis; settings: 24 h exposure; for Slope: probit
Description: Med. […] A control treated with acetone only was run with each series. Tick and flea susceptibility was evaluated using a modification of the disposable pipette method of Barnard et al. (J. Econ. Entomol., 74:466-69, 1981) and Maupin and […]. Med. […] The inner surface of 2-dram friction cap vials were treated with the compound/acetone solution, or acetone only as a control, and left to air-dry overnight (see also, […] et al., J. Med. […] Three to 4 holes were made in the plastic cap to allow for air exchange. Nymphal ticks and adult fleas were then placed directly into the vials using forceps. […] For each time point, if ticks and fleas were incapable of movement, maintaining normal posture, leg coordination, ability to right themselves, or any signs of life, they were considered moribund or dead.

[3] = system: Ae. aegypti adults; experiment: Adult mosquito bottle bioassay; format: in vivo, Aedes aegypti; settings: for Slope: probit
Description: (§1) Adult mosquitoes were tested using the bottle bioassay method of Brogden and McAllister (J. Am. Mosq. Control Assoc., 14:159–64, 1998) with minor modifications. Natural product extracts were two-fold serially diluted for a total of 8 concentrations ranging from 0.002% to 0.25% in 1.5 ml of acetone. Individual dilutions were added to 250 ml Wheaton glass bottles and capped. Bottles were manipulated to evenly coat all inner surfaces. The caps were removed and bottles were allowed to air-dry overnight. Once bottles were completely dry, 10–50 (in some tests 25–50) adult mosquitoes were aspirated into the bottles. Mosquitoes were held in the bottles for 24 h at 23° C. and 85% RH. Morbidity and mortality were recorded at 15, 30, 45, and 60 min and 24 hour intervals. One bottle for each replicate was treated with acetone only and served as a control. The dose-mortality data was evaluated with probit analysis, using the LdP Line software, to determine LC50 and LC90 values.
Carvacrol was combined with compound 7, 9, or 10 at a 1:1 ratio (7.5 μl of carvacrol:7.5 μl of compound 7, 9, or 10 was added to 2,985 μl of acetone for a 0.5% solution, from which serial dilutions were made), and tested as previously described against nymphal ticks and adult and larval mosquitoes.

[4] = system: Ixodes scapularis nymphs; experiment: Residual activity, aged treated vials, ticks; format: in vivo; settings: for LC90, residual activity: NE = not effective
Description: (§2) Briefly, groups of 10 nymphal I. scapularis and X. cheopis fleas were used in all tests (more than a total of 5,240 nymphs and 4,860 fleas were exposed to the compounds). The inner surface of 2-dram friction cap vials were treated with the compound/acetone solution, or acetone only as a control, and left to air-dry overnight (see also, Panella et al., J. Med. Entomol., 42(3):352-358, 2005. Three to 4 holes were made in the plastic cap to allow for air exchange. Nymphal ticks and adult fleas were then placed directly into the vials using forceps. Vials containing ticks or fleas were placed in desiccators for 24 h at 21° C. and 90% RH. Morbidity and mortality was recorded at 1, 2, 4, 8, and 24 h after initial exposure.

[5] = system: fourth-instar Aedes aegypti larvae; experiment: Larval mosquito bioassay; format: in vivo; settings: Aedes aegypti larval mosquitoes, concentration of the 1 ml added to 150 ml water
Description: Individual groups of 10 fourth-instar Aedes aegypti larvae were contained in 150 ml of water and exposed to […] of essential oils prepared by 2-fold serial dilutions ranging from 0.06%–5.0% in 1 ml of acetone. A control group of larvae were exposed to 1 ml of acetone only.
It is important to note that larval mosquitoes are tested in their natural environment, i.e., in water. The particular assays used herein involved groups of 10 larval mosquitoes in 150 ml of water. The weight percentages reported for lethal concentration for larval mosquitoes are the weight percentages added to the 150 ml water (as opposed to the final percentage of the tested compound(s) in the 150 ml water). As one of skill in the art will appreciate, test compound(s) added to a volume of water (such as, 150 ml) can be dramatically diluted depending upon the water solubility of the tested compound. […] If the tested compound is an oil (such as, carvacrol, nootkatone, or 13-hydroxy-valencene), it most likely floats on the surface of the water.

[6] = system: Ixodes scapularis nymphal ticks; experiment: Tick repellency bioassay; format: in vivo
Text: One-hundred (100) μl of test compound was pipetted onto a cotton-tipped applicator mounted to the bottom center of a 1 dram glass shell vial using non-toxic modeling clay. A total of 8 concentrations were screened with doses ranging from 0.04–5.0%. Applicators treated with acetone only served as controls. A line was drawn around the perimeter of the vial immediate to the base of the treated cotton portion of the applicator. The area above the line was designated the “repellent zone”. The vial was allowed to air-dry 1 h before a single tick was introduced. Vials were covered with a single piece of mesh and fitted with a hollowed-out plastic cap to cover the opening of the vial; this prevented the tick from escaping but allowed for air exchange. Vials were breathed upon by investigators at 1 min intervals and a hand was placed over the test vials to provide stimuli for ticks to pass into the repellent zone. […] If the tick crossed over and remained in the “repellent zone” for ≧5 sec, the tick was deemed non-repelled by the test compound. Each test was replicated 10 times using a new tick for each test. Repellent activity was determined at 1, 2, 3, and 4 h after treatment. Probit analysis was used to determine repellent efficacy (RD50 and RD95).

[7] = system: ticks, fleas, and mosquitoes; experiment: Residual activity, general statements (Examples 9, 17); format: in vivo
[8] = system: Xenopsylla cheopis adults; experiment: Residual activity, aged treated vials, fleas; format: in vivo
Description: as §2

[9] = system: Aedes aegypti adults; experiment: Residual activity, aged treated bottles, mosquitoes; format: in vivo
Description: as §1

[10] = Ixodes scapularis nymphal ticks, alone, or 1:1 with carvacrol (in parenthesis)
[11] = Ixodes scapularis nymphal ticks, alone, or 1:1 with carvacrol (in parenthesis), listed as carvacrol
[12] = 24 h exposure, NE = not effective at concentrations tested
[13] = Aedes aegypti adult mosquitoes, alone, or 1:1 with carvacrol (in parenthesis)
[14] = 1 h after compound applied to applicator
[15] = 4 h after compound applied to applicator
[16] = 2 weeks after treatment, NE = not effective

## Cc1ccc(C(C)C)cc1O [Compound 4, Carvacrol]
[1]
  LC90: 0.014 percent concentration, wt:vol
  Slope: 3.906
[1]; [10]
  LC50 (1 h): 0.019^b % (wt:vol)
  LC50 (24 h): 0.0068 % (wt:vol)
  LC90 (1 hr): 0.071 % (wt:vol)
  LC90 (24 h): 0.014 % (wt:vol)
[1]; [11]
  LC50 (1 h): 0.019 % (wt:vol)
  LC50 (24 h): about 0.0068 % (wt:vol)
[2]
  Slope: 3.413
[3]; [12]
  LC50: 0.0051 percent concentration, wt:vol
[3]; 24 h exposure
  Slope: 2.908
[3]; [13]
  LC50 (15 min): 0.0057^b % (wt:vol)
  LC50 (24 h): 0.0051 % (wt:vol)
  LC90 (15 min): 0.017 % (wt:vol)
  LC90 (24 h): 0.014 % (wt:vol)
[3]; Aedes aegypti adult mosquitoes, alone, or 1:1 with carvacrol (in parenthesis), listed as carvacrol
  LC50 (15 min): 0.0057 % (wt:vol)
[4]; nymphal I. scapularis
  residual activity: lacks any residual activity beyond about 1 week
[5]
  LC50 (1 h): 3.853^b % (wt:vol)
  LC50 (24 h): 0.988 % (wt:vol)
  LC90 (1 hr): 10.478 % (wt:vol)
  LC90 (24 h): 1.411 % (wt:vol)
[5]; listed as carvacrol
  LC50 (1 h): 3.853 % (wt:vol)
  LC50 (24 h): 1.411 % (wt:vol)
[6]; 1 h
  Slope (±SEM): 1.506 (±0.355)
[6]; [14]
  RD50: 0.088 % (wt:vol)
  RD95: 1.09 % (wt:vol)
[6]; 4 h
  Slope (±SEM): 2.907 (±0.755)
[6]; [15]
  RD50: 0.077 % (wt:vol)
  RD95: 0.283 % (wt:vol)
[6]; at 1 h
  more effective than Deet: 1.9 fold
[6]; at 4 h
  more effective than Deet: 46 fold
[7]
  residual activity: little-to-no activity beyond 24 h

## C=C(C)[C@@H]1CCC2=CC(=O)C[C@@H](C)[C@]2(C)C1 [Compound 8, Nootkatone]
[1]
  LC90: 0.015 percent concentration, wt:vol
  Slope: 3.211
[2]; NE = not effective at concentrations tested
  LC90: 0.008 percent concentration, wt:vol
[2]
  Slope: 2.949
[3]; [12]
  LC90: 0.0087 percent concentration, wt:vol
[3]; 24 h exposure
  Slope: 4.635
[3]; Aedes aegypti, 24 h exposure, NE = not effective at concentrations tested, read-out: LC50
  LC50: 46 µg/mL (≈ 211 µM)
[4]; 1 week after treatment
  Slope, residual activity: 2.871
[4]; 2 weeks after treatment
  Slope, residual activity: 2.727
  LC90, residual activity: 0.056 percent concentration, wt:vol
[4]; 4 weeks after treatment
  Slope, residual activity: 2.871
[8]; 1 week after treatment
  Slope, residual activity: 3.107
[8]; 1 week after treatment, NE = not effective
  LC90, residual activity: 0.053 percent concentration, wt:vol
[8]; 2 weeks after treatment
  LC90, residual activity: 0.081 percent concentration, wt:vol
  Slope, residual activity: 1.931
[8]; 4 weeks after treatment
  Slope, residual activity: 1.95
[9]; 1 week after treatment
  Slope, residual activity: 3.858
[9]; 2 weeks after treatment
  Slope, residual activity: 4.953
[9]; [16]
  LC90, residual activity: 0.012 percent concentration, wt:vol
[9]; 4 weeks after treatment
  Slope, residual activity: 7.772
[7]; ticks
  residual activity: considerable biological activity through the four week time period

## C=C(C=O)C1CCC2=CCC[C@@H](C)[C@]2(C)C1 (stereo partly drawn) [Compound 15, valencene-13-aldehyde]
[1]
  Slope: 2.755
[2]
  Slope: 5.366
[3]; 24 h exposure
  Slope: 8.714
[4]; 1 week after treatment
  Slope, residual activity: 2.859
  LC90, residual activity: 0.072 percent concentration, wt:vol
[8]; 1 week after treatment
  Slope, residual activity: 3.211
[9]; 1 week after treatment
  LC90, residual activity: 0.027 percent concentration, wt:vol
  Slope, residual activity: 3.392
[9]; 2 weeks after treatment
  Slope, residual activity: 3.136
[9]; [16]
  LC90, residual activity: 0.037 percent concentration, wt:vol
[7]; ticks
  residual activity: considerable biological activity through the four week time period

## C=C(C)C1CCC23OC2C(=O)C[C@@H](C)[C@]3(C)C1 (stereo partly drawn) [Compound 17, nootkatone-1,10-epoxide]
[1]
  Slope: 2.883
[2]
  Slope: 2.326
[3]; 24 h exposure
  Slope: 1.346
[6]; 1 hr, combinations 1:1 by weight
  RD50: 3×10^−1 % (w/v)
[6]; 4 hr, combinations 1:1 by weight
  RD50: 0.135 % (w/v)

## C[C@@H]1CC(=O)C2OC23CCC(C2(C)CO2)C[C@@]13C (stereo partly drawn) [Compound 18, nootkatone-1,10–11,12-diepoxide]
[1]
  Slope: 2.131
[2]
  Slope: 1.455
[3]; 24 h exposure
  Slope: 4.472

## CCN(CC)C(=O)c1cccc(C)c1 [Deet, N, N-diethyl-m-toluamide, reference compound]
[6]; 1 h
  Slope (±SEM): 0.633 (±0.222)
[6]; [14]
  RD50: 0.167 % (wt:vol)
  RD95: 50.579 % (wt:vol)
[6]; 4 h
  Slope (±SEM): 0.485 (±0.212)
[6]; [15]
  RD50: 0.384 % (wt:vol)
  RD95: 950.294 % (wt:vol)
